Experimental data reported in patent US5686486A, “4-hydroxy-benzopyran-2-ones and 4-hydroxy-cycloalkyl[b]pyran-2-ones useful to treat retroviral infections” (priority 1995, dated 1997).
“And” between values parts separate entries of the source, which are not always exact repeats. Equal values may be shown once. Where a name gives a salt, the structure may show the parent alone.

Key:
HIV-1 protease [1] = target: T1, HIV-1 protease (Human immunodeficiency virus type 1 group M subtype B, UniProt P04585); assay: biochemical; conditions: for inhibition at 0.123 µM: read-out: HIV-1 Protease % Inhib, dose 0.123 uM; for inhibition at 0.37 µM: read-out: HIV-1 Protease % Inhib, dose 0.370 uM; for inhibition at 1.1 µM: read-out: HIV-1 Protease % Inhib, dose 1.100 uM; for inhibition at 3.3 µM: read-out: HIV-1 Protease % Inhib, dose 3.300 uM; for inhibition at 10 µM: read-out: HIV-1 Protease % Inhib, dose 10.000 uM; for inhibition at 30 µM: read-out: HIV-1 Protease % Inhib, dose 30.000 uM
Outline: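 Percent inhibition derived from fluorescent cleavage product separated by filtration after streptavidin-bead capture of intact biotin/FITC substrate. Reaction: enzyme (10 μl, 0.1 μM stock) with substrate (20 μl, 0.2 μM stock) and compound, 1 h at room temperature in dark, pH 5.5 acetate buffer with 1.0 M NaCl and 0.05% NP-40.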

HIV-1 protease [2] = target: T1, HIV-1 protease; assay: biochemical; conditions: read-out: HIV-1 FITC KI
Outline: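 Enzyme (40 nM stock) and substrate (200 μM stock) incubated with inhibitor, 24–48 two-fold serial concentrations, for 90 min at room temperature, then quenched with avidin beads. Nonlinear least-squares analysis gives Ki; a known-Ki inhibitor validates each run.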

SMILES	inhibition at 0.123 µM (HIV-1 protease [1])	inhibition at 0.37 µM (HIV-1 protease [1])	inhibition at 1.1 µM (HIV-1 protease [1])	inhibition at 3.3 µM (HIV-1 protease [1])	inhibition at 10 µM (HIV-1 protease [1])	inhibition at 30 µM (HIV-1 protease [1])	Ki (HIV-1 protease [2])	HIV-1 Protease % Inhib (HIV-1 protease [1]; dose 3.300 uM)	HIV-1 Protease % Inhib (HIV-1 protease [1]; dose 10.000 uM)	HIV-1 Protease % Inhib (HIV-1 protease [1]; dose 30.000 uM)	HIV-1 Protease % Inhib (HIV-1 protease [1]; dose 0.123 uM)	HIV-1 Protease % Inhib (HIV-1 protease [1]; dose 0.370 uM)	HIV-1 Protease % Inhib (HIV-1 protease [1]; dose 1.100 uM)
CCCC(c1cccc(N)c1)c1c(O)c2c(oc1=O)CCCCCC2 (stereo not shown) [Example 376, 3-[1-(3-Aminophenyl)butyl]-5,6,7,8,9,10-hexahydro4-hydroxy-2H-cycloocta[b]pyran-2-one]	10.6%	33.7%	75.3%	96.5%	102%	103%	195 nM						
CCCC(c1cccc(NS(=O)(=O)c2ccc(Cl)cc2)c1)c1c(O)c2c(oc1=O)CCCCCC2 (stereo not shown) [Example 377, Benzenesulfonamide, 4-chloro-N-[3-[1-(5,6,7,8,9,10-hexahydro-4-hydroxy-2-oxo-2H-cycloocta[b]pyran-3-yl)butyl]phenyl]-]	92.9%					94.7%	4 nM	66.07% and 114.03%	83.74% and 107.37%	101.29%			
CCCC(c1cccc(NS(=O)(=O)c2ccc(C#N)cc2)c1)c1c(O)c2c(oc1=O)CCCCCC2 (stereo not shown) [Example 378, Benzenesulfonamide, 4-cyano-N-[3-[1-(5,6,7,8,9,10-hexahydro-4-hydroxy-2-oxo-2H-cycloocta[b]pyran-3-yl)butyl]phenyl]-]	103%	111%	112%	118%	112%	112%	1.06 nM						
O=c1oc2c(c(O)c1C(c1cccs1)C1CC1)CCCCCC2 (stereo not drawn) [Example 379, 3-(α-Cyclopropylthien-2-ylmethyl)-4-hydroxy-5,6,7,8,9,10-hexahydrocycloocta[b]pyran-2-one]		48.6%	84.5%	96.2%	107%	113%	18.3 nM						
CCC(c1cccs1)c1c(O)c2c(oc1=O)CCCCCC2 (stereo not drawn) [Example 380, 3-(α-Ethylthien-2-ylmethyl)4-hydroxy-5,6,7,8,9,10-hexahydrocycloocta[b]pyran-2-one]		21.5%	57.2%	82.5%	103%	108%	87.9 nM						
CCC(c1ccc(C)s1)c1c(O)c2c(oc1=O)CCCCCC2 (stereo not shown) [Example 381]		24.1%	62.3%	80.4%	99.8%	96.7%	39.1 nM						
O=c1oc2c(c(O)c1C(c1ccc(CO)s1)C1CC1)CCCCCC2 (stereo not shown) [Example 384]	12.2%	47.4%	79.2%	92.9%	103%	102%	24.1 nM						
O=c1oc2c(c(O)c1C(c1ccc(CCO)s1)C1CC1)CCCCCC2 (stereo not shown) [Example 385]		48.5%	89.5%	104%	107%	107%	12.4 nM						
O=C(NCc1ccc(C(c2c(O)c3c(oc2=O)CCCCCC3)C2CC2)o1)OCc1ccccc1 (stereo not drawn) [Example 388, 3-(α-Cyclopropyl (5-(N-carbobenzoxy)aminomethyl)furfur-2-yl)-4-hydroxy-5,6,7,8,9,10-hexahydrocycloocta[b]pyran-2-one]		42.8%	76%	96.5%	98.2%	93.7%	21.7 nM						
O=C(NCc1ccc(C(c2c(O)c3c(oc2=O)CCCCCC3)C2CC2)s1)OCc1ccccc1 (stereo not drawn) [Example 389, 3-(α-Cyclopropyl (5-(N-carbobenzoxy)aminomethyl)thien-2-ylmethyl)-4-hydroxy-5,6,7,8,9,10-hexahydrocycloocta[b]pyran-2-one]		21.1%	58%	78.7%	96.4%	98.7%	46.2 nM						
Cc1sc(C(c2c(O)c3c(oc2=O)CCCCCC3)C2CC2)cc1CO (stereo not shown) [Example 394]	72.7%	102%	109%	115%	120%	123%	6.04 nM						
O=c1oc2c(c(O)c1C(c1cccc(NS(=O)(=O)Nc3ccccc3)c1)C1CC1)CCCCCC2 (stereo not shown) [Example 397]	35.7%	92.9%	105%	109%	116%	113%	7.3 nM						
CN(C)S(=O)(=O)Nc1cccc(C(c2c(O)c3c(oc2=O)CCCCCC3)C2CC2)c1 (stereo not shown) [Example 398, N'-[3-[cyclopropyl(5,6,7,8,9,10-hexahydro4-hydroxy-2-oxo-2H-cycloocta[b]pyran-3-yl)methyl]phenyl]-N,N-dimethyl-sulfamide]	10.5%	40.9%	74.2%	91.5%	105%	105%	41.5 nM						
CN1CCN(S(=O)(=O)Nc2cccc(C(c3c(O)c4c(oc3=O)CCCCCC4)C3CC3)c2)CC1 (stereo not shown) [Example 399, N-[3-[Cyclopropyl(5,6,7,8,9,10-hexahydro-4-hydroxy-2-oxo-2H-cycloocta[b]pyran-3-yl)methyl]phenyl]4-methyl-1-piperazinesulfonamide]		21.6%	54.1%				186 nM						
O=c1oc2c(c(O)c1C(c1cccc(S(=O)(=O)Nc3ccccc3)c1)C1CC1)CCCCCC2 (stereo not shown) [Example 400, N-Phenyl-3-[cyclopropyl(5,6,7,8,9, 10-hexahydro-4-hydroxy-2-oxo-2H-cycloocta[b]pyran-3-yl)methyl]-benzenesulfonamide]	17.4%	54.8%	78.7%	94.7%	114%	109%	35.8 nM						
N#Cc1ccc(S(=O)(=O)Nc2cccc(C(c3c(O)c4c(oc3=O)CCCCCC4)C3CC3)c2)cc1 (stereo not shown) [Example 402, Sodium Salt of 4-Cyano-N-[3-[cyclopropyl(5,6,7,8,9,10-hexahydro4-hydroxy-2-oxo-2H-cycloocta[b]pyran-3-yl)methyl]phenyl]-benzenesulfonamide]							0.62 nM	100.22%	98.03%	98.47%	103.69%	106.4%	110.07%
O=c1oc2c(c(O)c1C(c1cccc(NS(=O)(=O)c3ccc(CBr)cc3)c1)C1CC1)CCCCCC2 (stereo not shown) [Example 403, 4-(Bromomethyl)-N-[3-[cyclopropyl(5,6,7,8,9,10-hexahydro-4-hydroxy-2-oxo-2H-cycloocta[b]pyran-3-yl)methyl]phenyl]-benzenesulfonamide]	41.6%	77.5%	92.9%	94.8%	95.6%	97%	5 nM						
O=c1oc2c(c(O)c1[C@H](c1cccc(NS(=O)(=O)c3ccc(S(=O)(=O)c4ccccc4)s3)c1)C1CC1)CCCCCC2 [Example 404]	58.3%	85.3%	103%	108%	106%	103%	2.87 nM						
O=c1oc2c(c(O)c1C(c1cccc(NS(=O)(=O)c3cccc(O)c3)c1)C1CC1)CCCCCC2 (stereo not shown) [Example 405, N-[3-[Cyclopropyl(5,6,7,8,9,10-hexahydro-4-hydroxy-2-oxo-2H-cycloocta[b]pyran-3-yl)methyl]phenyl]-3-hydroxy-benzenesulfonamide]	46.5%	88.6%	101%	106%	101%	77.2%	3.13 nM						
O=c1oc2c(c(O)c1C(c1cccc(NS(=O)(=O)c3ccc(O)cc3)c1)C1CC1)CCCCCC2 (stereo not shown) [Example 407, N-[3-[Cyclopropyl(5,6,7,8,9,10-hexahydro-4-hydroxy-2-oxo-2H-cycloocta[b]pyran-3-yl)methyl]phenyl]-4-hydroxy-benzenesulfonamide]	26.8%	74.7%	91.2%	98.1%	107%	113%	6.6 nM						
O=C(COCc1ccccc1)Nc1cccc(S(=O)(=O)Nc2cccc(C(c3c(O)c4c(oc3=O)CCCCCC4)C3CC3)c2)c1 (stereo not shown) [Example 408, 3-(Benzyloxyacetylamino)-N-[3-[cyclopropyl(5,6,7,8,9,10-hexahydro-4-hydroxy-2-oxo-2H-cycloocta[b]pyran-3-yl)methyl]phenyl]-benzenesulfonamide]	38.4%	70.1%	88.9%	98.5%	91.7%	107%	14 nM						
